This is an account of results in patent US20180055857A1, “TREATMENT OF ACNE VULGARIS WITH SEQUENTIAL TOPICAL FORMULATIONS COMPRISING ANTIMICROBIAL ORGANIC ACID ANIONS IN ALKALINE PHASE” (KANTIAN SCIENCES CORPORATION, priority 2015, published 2018).

Where two headings read alike, the source gives them in different places.

One series relates to Listeria monocytogenes. The following applies: beef tissue briefly dipped in a 1% acid solution at 55° C.; cited from earlier work.
The next series concerns E. coli O157:H7. Conditions: beef tissue briefly dipped in a 1% acid solution at 55° C.; cited from earlier work.

For the compound `O=NO` [Nitrite], the “% HONO” value reads like this: (pH 2.6) 83.3%; (pH 2.8) 76.0%; (pH 3.0) 66.7%; (pH 3.3) 50.0%; (pH 3.5) 38.8%; (pH 4.0) 16.6%. The “% NO2^−” value is, setting by setting: (pH 2.6) 16.7%; (pH 2.8) 24.0%; (pH 3.0) 33.3%; (pH 3.3) 50.0%; (pH 3.5) 61.2%; (pH 4.0) 63.4%.

Turning to `O=C(O)/C=C/C(=O)O` [fumaric acid], in the series on Listeria monocytogenes, the “reduction of Listeria monocytogenes” value is given as “much more effective than lactic or acetic acids”. The “reduction of E. coli O157:H7” value in the series on E. coli O157:H7 is recorded as “much more effective than lactic or acetic acids”.
